Laboratory results from US20260071220A1, “CONJUGATE OF NUCLEOTIDE ANALOG-CONTAINING DOUBLE-STRANDED RNAI ANALOG” (BaseCure Therapeutics LLC, priority 2022, published 2026).
Several values for one entry are separate records, joined by “and”; a condition that tells them apart may be missing. Equal values may be shown once. In the oligonucleotide strings, read from the 5' end, every base follows the letter of its sugar. An asterisk marks phosphorothioate; unmarked linkages are phosphodiester. Other units and linkages are bracketed, terminal groups are in braces. A string of capitals states the bases alone. {D01} = GalNAc ligand D01, attached to sense strand by a phosphodiester bond; m = 2'-O-methyl; f = 2'-fluoro

Columns and labels:
HEK BLUE hTLR8 = assay: Cell activity detection (CellTiter-Glo) in hTLR8 cells; assay type: cell-based, human; details: 24 h, maximum concentration 200 nM, read-out: CC50
Description: (§1) 1) The conjugate of the present invention was diluted to a concentration that was 20 times a final concentration, the diluted conjugate was mixed with RNAiMAX-OPTI MEM (RNAiMAX:OPTI MEM=3:47) at a ratio of 1:1 and incubated for 15 min at room temperature.
(§2) 2) 10 μL of incubated conjugate of the present invention was added into a corresponding cell plate, with 10 concentrations in total, a maximum concentration being 200 nM, and double duplicated wells for each concentration.
(§3) 4) 90 μL of cells were seeded into a 96-well plate with the conjugate at the density of 50,000 cells/well.
(§4) 5) The conjugate of the present invention and the cells were co-incubated for 24 h in an incubator under the conditions of 37° C. and 5% CO2.
(§5) 8) Cell activity detection: the operation was carried out according to the method in the Celltiter-Glo specification, and a chemiluminescence signals (RLU) were detected using the multifunctional microplate reader Flexstation III.
(§6) Compound activity: the OD650 values were analyzed using GraphPad Prism software, and a dose effect curve of the compound was fit, and the EC50 value of the compound was calculated. Cell activity detection: the calculation formula of cell activity % was as follows. The cell activity % value was analyzed using GraphPadPrism software, the dose effect curve of the compound was fit, and the CC50 value of the compound on cell was calculated.

hTLR3 = target: T1, hTLR3 (Homo sapiens, UniProt O15455); assay: Agonistic activity on hTLR3 cells (HEK BLUE, QUANTI-Blue OD650); assay type: cell-based; details: 24 h, transfection with RNAiMAX, maximum concentration 200 nM, read-out: EC50
T1 construct: host or cells: HEK BLUE hTLR3 (HEK293-derived SEAP reporter line)
T1 sequence (O15455 24-904): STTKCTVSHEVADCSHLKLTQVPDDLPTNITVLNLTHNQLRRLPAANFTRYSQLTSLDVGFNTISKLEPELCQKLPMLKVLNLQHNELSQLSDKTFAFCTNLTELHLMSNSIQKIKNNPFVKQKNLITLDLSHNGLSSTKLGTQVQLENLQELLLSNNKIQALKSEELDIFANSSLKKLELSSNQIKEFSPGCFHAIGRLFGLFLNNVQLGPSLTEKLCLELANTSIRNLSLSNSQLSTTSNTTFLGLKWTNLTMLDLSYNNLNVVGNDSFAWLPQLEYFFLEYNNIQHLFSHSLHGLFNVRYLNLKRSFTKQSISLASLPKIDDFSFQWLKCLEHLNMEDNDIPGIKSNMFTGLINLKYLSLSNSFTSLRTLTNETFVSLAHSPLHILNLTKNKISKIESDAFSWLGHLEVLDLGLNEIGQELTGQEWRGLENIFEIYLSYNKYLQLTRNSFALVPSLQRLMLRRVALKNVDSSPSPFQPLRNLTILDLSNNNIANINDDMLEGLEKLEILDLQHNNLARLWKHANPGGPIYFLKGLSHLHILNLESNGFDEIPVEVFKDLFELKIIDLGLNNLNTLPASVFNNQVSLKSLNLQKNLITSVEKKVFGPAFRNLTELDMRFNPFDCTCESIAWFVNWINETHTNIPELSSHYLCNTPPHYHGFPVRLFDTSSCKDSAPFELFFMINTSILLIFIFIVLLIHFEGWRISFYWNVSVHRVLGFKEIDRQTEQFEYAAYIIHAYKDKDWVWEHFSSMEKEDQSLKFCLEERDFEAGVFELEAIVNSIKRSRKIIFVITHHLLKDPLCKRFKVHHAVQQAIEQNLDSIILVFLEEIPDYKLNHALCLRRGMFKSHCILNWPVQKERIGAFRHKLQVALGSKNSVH
Description: as §1, §2
10 μL of 0.5 μM BLOCK-iT™ Alexa Fluor® Red Fluorescent Control was added into 2 transfection positive control wells.
as §3, §4
7) Compound activity detection: 20 μL of cell supernatant was taken from each well and added into an experimental plate containing 180 μL of QUANTI-Blue™ reagent and then incubated for 1 h at 37° C., followed by detecting an absorbance values at 650 nm (OD650) using the multifunctional microplate reader Flexstation III.
as §6

HEK BLUE hTLR3 = assay: Cell activity detection (CellTiter-Glo) in hTLR3 cells; assay type: cell-based, human; details: 24 h, maximum concentration 200 nM, read-out: CC50
Description: as §1, §2, §3, §4, §5, §6

AGT mRNA = assay: Mouse hAGT HDI model (liver AGT mRNA); assay type: in vivo; details: 5 mg/kg single s.c. dose, liver on Day 4; for AGT mRNA expression of mouse liver after administration/before administration, Average: group average (4 mice); for AGT mRNA expression of mouse liver after administration/before administration: individual animal, 5 mg/kg
Description: The targeting of a target gene in a sample to be tested and the inhibitory effect on the target gene were evaluated by a mouse model injected with pcDNA-CMV-AGT plasmids via tail vein at high pressure.
pcDNA-CMV-AGT plasmids, BALB/c female mice, DPBS (Dulbecco's phosphate buffer solution), and a conjugate of the present invention.
6 to 8-week-old BALB/c female mice were purchased, and the mice were adapted to quarantine for one week after arriving at an animal room.
On Day 0, the mice were divided into groups at random according to weight data, with 4 mice in each group, all the mice were dosed subcutaneously after grouping, with a single dose at 10 mL/kg. The mice in group 1 were dosed with DPBS; the mice in group 2 were dosed with AD-85481 at the dose of 5 mg/kg; the mice in group 3 were dosed with the conjugate 3 of the present invention at the dose of 5 mg/kg; the group 4 was dosed with the conjugate 2 of the present invention at the dose of 5 mg/kg.
On Day 3 after administration, all the mice were injected with the pcDNA-CMV-AGT plasmids at a volume of 8% of their weight via the tail vein within 5 s (injection volume (mL)=mouse weight (g)×8%). The mass of the plasmids injected into each mouse was 10 μg.
On Day 4 after administration, all groups of mice were euthanized by CO2 inhalation, and 2 liver samples were collected from each mouse. The liver samples were treated with RNAlater at 4° C. overnight, then RNAlater was removed, and subsequently the samples without RNAlater were stored at −80° C. for detecting the expression level of AGT genes.
4. In the table, the data represent AGT mRNA expression of mouse liver after administration/AGT mRNA expression of mouse liver before administration, […]

## Conjugate 2: Double-stranded RNAi analog against AGT, D01 GalNAc ligand on sense strand; sense SEQ ID NO: 6, antisense SEQ ID NO: 2 containing Z (sense mA*mU*fCfCmAfCfAfAmUmGmAmGmAfGmUmAmCmA-{D01}; antisense CUCACAUGUACNCUCAUUGUGGAUGACGA; antisense: chemistry not given here; antisense strand modified, includes nucleotide analog Z, further chemistry not fully specified)
HEK BLUE hTLR8
  CC50: > 200 nM
hTLR3
  EC50: > 200 nM
HEK BLUE hTLR3
  CC50: > 200 nM
AGT mRNA
  AGT mRNA expression of mouse liver after administration/before administration, Average: 3%
  AGT mRNA expression of mouse liver after administration/before administration: 2% (2×) and 3% and 4%

## Conjugate 3: Double-stranded RNAi analog against AGT, D01 GalNAc ligand on sense strand; sense SEQ ID NO: 7, antisense SEQ ID NO: 2 containing Z (sense mA*mU*fCfCmAfCfAfAmUmGmAfGmAmGmUmAmCmA-{D01}; antisense CUCACAUGUACNCUCAUUGUGGAUGACGA; antisense: chemistry not given here; antisense strand modified, includes nucleotide analog Z, further chemistry not fully specified)
HEK BLUE hTLR8
  CC50: > 200 nM
hTLR3
  EC50: > 200 nM
HEK BLUE hTLR3
  CC50: > 200 nM
AGT mRNA
  AGT mRNA expression of mouse liver after administration/before administration, Average: 3%
  AGT mRNA expression of mouse liver after administration/before administration: 3% (2×) and 2% (2×)
